In patent US20210267731A1, “COMPOSITION FOR TREATING AND PREVENTING GINGIVOPERIODONTITIS OR PERI-IMPLANTITIS, AND INTERDENTAL BRUSH COATED WITH SAME” (NIBEC CO., LTD., priority 2018, published 2021):
Ends that are not written are not given here.

How the values were obtained:
[1] = Test of lipopolysaccharide removal effect of nonionic surfactants; details: compared with other nonionic surfactants (polyoxyethylene, Tween series, span series)
Text: Octyl phenol ethoxylate (C14H22O (C2H4O)n) is a nonionic surfactant, has a hydrophilic polyethylene oxide group and a hydrophobic 4-(1,1,3,3-tetramethylbutyl)-phenyl group, and is widely used as a detergent in the biochemical field. In immunostaining, octyl phenol ethoxylate permeabilizes the cell membrane at a concentration of 0.1 to 0.5%, and permeabilizes the cell wall of bacteria at a concentration of 1%. In the present invention, octyl phenol ethoxylate has an effect of removing lipopolysaccharide (LPS). Other nonionic surfactants widely used in this technical field include polyoxyethylene, Tween series, span series and the like.

Prevotella intermedia = assay: Antimicrobial experiment, liquid dilution method, colony count; format: cell-based
Experimental: In order to determine the effect of the composition containing the antimicrobial peptide, an antimicrobial experiment was conducted according to the liquid dilution method. Prevotella intermedia, which is a bacterium causative of periodontal disease, was cultured in Tryptic soy broth. The above strain was cultured until the absorbance at 620 nm reached 1, and then the cells were collected and used in the experiment. The cells were diluted with PBS, bacteria were plated at 10^5-10^7/mL on a tryptic soy agar (TSA) plate, and incubated at 37° C. for 24 hours. In order to measure the antimicrobial activity of the peptides using a liquid dilution method, 1 ml of distilled water was added to a microtube, 10 µl of diluted bacterial solution was added thereto and 50 μl of the product was plated on a plate medium which was used as a control group.
After treatment with 50 μg/ml and 100 μg/ml of the peptide of SEQ ID NO: […] and 100 μg/ml of the peptide of SEQ ID NO: 2 at 37° C. for 1 hour, 50 μl of each of the product was plated and the number of colonies that formed was counted. In addition, the antimicrobial activity of the composition of Example 1, a composition containing the composition of Example 1 and the peptide of SEQ ID NO: 1, and a composition containing the composition of Example 1 and the peptide of SEQ ID NO: 2 was measured in the same manner as above.

| Substance | lipopolysaccharide removal effect [1] | antimicrobial activity (Prevotella intermedia; among peptides of SEQ ID NO: 1 to SEQ ID NO: 4) | antimicrobial activity of peptide (colonies formed) (Prevotella intermedia; peptide at 100 μg/ml, 37° C., 1 hour, FIG. 6) |
| --- | --- | --- | --- |
| octyl phenol ethoxylate | greatest lipopolysaccharide removal effect |  |  |
| GKSST RGRKS CRRKK-NH2 (GKSSTRGRKSCRRKK-NH2) [peptide of SEQ ID NO: 2, antimicrobial peptide] |  | best antimicrobial activity | the highest |
